# Patent US20230167073A1 (Teijin Pharma Limited, priority 2020, published 2023)
# Biological target: T1, Human TRPC6 (Homo sapiens, UniProt Q9Y210)
# T1 construct: expressed in transfected cells
# T1 sequence (Q9Y210 1-931): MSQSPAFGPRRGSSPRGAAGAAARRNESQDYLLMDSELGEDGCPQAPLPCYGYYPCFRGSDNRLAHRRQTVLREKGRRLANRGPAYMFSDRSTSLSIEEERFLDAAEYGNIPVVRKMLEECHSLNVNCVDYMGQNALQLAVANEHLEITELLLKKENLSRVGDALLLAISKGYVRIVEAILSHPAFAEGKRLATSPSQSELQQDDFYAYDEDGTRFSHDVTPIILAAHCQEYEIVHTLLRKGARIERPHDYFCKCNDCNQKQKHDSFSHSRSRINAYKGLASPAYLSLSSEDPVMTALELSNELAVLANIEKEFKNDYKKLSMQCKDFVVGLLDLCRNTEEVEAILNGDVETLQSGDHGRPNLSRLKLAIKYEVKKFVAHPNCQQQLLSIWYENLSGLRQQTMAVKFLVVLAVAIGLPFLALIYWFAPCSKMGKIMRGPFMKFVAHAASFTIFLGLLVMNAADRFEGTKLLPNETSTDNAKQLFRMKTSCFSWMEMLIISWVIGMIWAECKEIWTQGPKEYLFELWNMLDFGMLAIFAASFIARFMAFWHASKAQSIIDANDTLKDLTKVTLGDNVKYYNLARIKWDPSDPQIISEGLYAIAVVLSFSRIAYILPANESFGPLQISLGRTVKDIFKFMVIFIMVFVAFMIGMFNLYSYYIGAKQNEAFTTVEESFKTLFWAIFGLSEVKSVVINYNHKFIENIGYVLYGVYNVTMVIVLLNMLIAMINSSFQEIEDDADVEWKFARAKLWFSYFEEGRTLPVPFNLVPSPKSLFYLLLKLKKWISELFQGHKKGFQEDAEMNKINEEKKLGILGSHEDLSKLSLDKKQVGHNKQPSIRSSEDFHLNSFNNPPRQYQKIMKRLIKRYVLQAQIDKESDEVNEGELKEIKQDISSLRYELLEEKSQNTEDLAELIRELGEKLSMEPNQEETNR
# Experiment: Evaluation of TRPC6 channel inhibitory activity (1), FLIPR Calcium 5 Assay Kit, OAG stimulation (Compound Nos. 1-1293)
# Assay type: cell-based
# Conditions: Human TRPC6 stably-expressing cells, OAG 30 μM, FLIPR Calcium 5 Assay Kit; read-out: Inhibitory activity (pIC50 class) (converted)
# Outline: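 Stable human TRPC6 line; fluorescent Ca2+ dye loading, then 20 min compound exposure before 30 μM OAG trigger. Peak-minus-baseline signal converted to % inhibition against untreated and unstimulated wells; potency given as pIC50 band.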
row,Structure (SMILES),IC50
1,"N#Cc1ccc(-c2ccc(CCN)cc2)c(Oc2cnnc(-c3ccccc3C(=O)O)c2)c1 [Compound 121, 2-[5-[2-[4-(2-aminoethyl)phenyl]-5-cyanophenoxy]pyridazin-3-yl]benzoic acid]",> 1000 nM
2,"Cc1nc(Oc2cc(C#N)ccc2-c2ccc(CCN)cc2)cc(-c2cscn2)n1 [Compound 30, 4-[4-(2-aminoethyl)phenyl]-3-[2-methyl-6-(1,3-thiazol-4-yl)pyrimidin-4-yl]oxybenzonitrile]",< 10 nM
3,"Cc1cc(Oc2cc(C#N)ccc2-c2ccc([C@H](O)CN)cn2)cc(N2C[C@@H]3C[C@H]2CO3)n1 [compound 527, 4-[5-[(1S)-2-amino-1-hydroxyethyl]pyridin-2-yl]-3-[2-methyl-6-[(1S,4S)-2-oxa-5-azabicyclo[2.2.1]heptan-5-yl]pyridin-4-yl]oxybenzonitrile]",< 10 nM
4,"Cn1nc(C2CC2)cc1Oc1cc(C#N)ccc1-c1cnc(NCCN)nc1 [compound 431, 4-[2-(2-aminoethylamino)pyrimidin-5-yl]-3-(5-cyclopropyl-2-methylpyrazol-3-yl)oxybenzonitrile]",10 to 1000 nM
5,"Cn1nc(-c2cccc(F)c2)cc1Oc1cc(C#N)ccc1-c1ccc(CCN)nc1 [Compound 187, 4-[6-(2-aminoethyl)pyridin-3-yl]-3-[5-(3-fluorophenyl)-2-methylpyrazol-3-yl]oxybenzonitrile]",< 10 nM
6,"Cc1cc(Oc2cc(C#N)ccc2-n2ccc(C(O)CN)n2)cc(-c2ccccc2)n1 (centres unmarked) [Compound 203, 4-[3-(2-amino-1-hydroxyethyl)pyrazol-1-yl]-3-(2-methyl-6-phenylpyridin-4-yl)oxybenzonitrile]",10 to 1000 nM
7,"Cc1nc(Oc2cc(C#N)ccc2-n2cc([C@@H](O)CN)cn2)cc(OC2CCCC2)n1 [Compound 265, 4-[4-[(1R)-2-amino-1-hydroxyethyl]pyrazol-1-yl]-3-(6-cyclopentyloxy-2-methylpyrimidin-4-yl)oxybenzonitrile]",10 to 1000 nM
8,"Cc1nc(Oc2cc(C#N)ccc2-c2ccc(CCN)cc2)cc(N2CCCCC2)n1 [Compound 17, 4-[4-(2-Aminoethyl)phenyl]-3-(2-methyl-6-piperidin-1-ylpyrimidin-4-yl)oxybenzonitrile]",< 10 nM
9,"Cc1nc(OCC2CC2(F)F)cc(Oc2cc(C#N)ccc2-n2cc([C@@H](O)CN)cn2)n1 (stereo partly drawn) [Compound 271, 4-[4-[(1R)-2-amino-1-hydroxyethyl]pyrazol-1-yl]-3-[6-[(2,2-difluorocyclopropyl)methoxy]-2-methylpyrimidin-4-yl]oxybenzonitrile]",10 to 1000 nM
10,"Cc1nc(Oc2cc(C#N)ccc2-c2ccc(CCN)cc2)cc(C2CCCC2)n1 [Compound 46, 4-[4-(2-aminoethyl)phenyl]-3-(6-cyclopentyl-2-methylpyrimidin-4-yl)oxybenzonitrile]",< 10 nM
11,"Cc1cc(Oc2cc(C#N)ccc2-c2ccc(CCN)cn2)cc(N2CCNC(=O)C2)n1 [compound 456, 4-[5-(2-aminoethyl)pyridin-2-yl]-3-[2-methyl-6-(3-oxopiperazin-1-yl)pyridin-4-yl]oxybenzonitrile]",> 1000 nM
12,"CCCc1cc(Oc2cc(C#N)ccc2-c2ncc(CCN)cn2)n(C)n1 [Compound 260, 4-[5-(2-aminoethyl)pyrimidin-2-yl]-3-(2-methyl-5-propylpyrazol-3-yl)oxybenzonitrile]",< 10 nM
13,"Cn1nc(-c2cccc(F)c2)cc1Oc1cc(C#N)ccc1-c1ccc(C(O)CN)cc1 (centres unmarked) [Compound 198, 4-[4-(2-amino-1-hydroxyethyl)phenyl]-3-[5-(3-fluorophenyl)-2-methylpyrazol-3-yl]oxybenzonitrile]",< 10 nM
14,"CC(C)Cc1nn(C)c(Oc2cc(C#N)ccc2-c2ccc(CCN)cc2)c1C(C)C [Compound 243, 4-[4-(2-aminoethyl)phenyl]-3-[2-methyl-5-(2-methylpropyl)-4-propan-2-ylpyrazol-3-yl]oxybenzonitrile]",> 1000 nM
15,"N#Cc1ccc(-c2ccc(CCN)cc2)c(Oc2cc(N3CCOCC3)nc(C(F)(F)F)n2)c1 [Compound 113, 4-[4-(2-aminoethyl)phenyl]-3-[6-morpholin-4-yl-2-(trifluoromethyl)pyrimidin-4-yl]oxybenzonitrile]",< 10 nM
16,"Cc1nc(Oc2cc(C#N)ccc2-c2ccc([C@H](O)CN)cn2)cc(-c2ncc(C)s2)n1 [compound 606, 4-[5-[(1S)-2-amino-1-hydroxyethyl]pyridin-2-yl]-3-[2-methyl-6-(5-methyl-1,3-thiazol-2-yl)pyrimidin-4-yl]oxybenzonitrile]",10 to 1000 nM
17,"CCOC(=O)c1cc(Oc2cc(C#N)ccc2-c2ccc(CCN)cn2)n(C)n1 [compound 309, ethyl 5-[2-[5-(2-aminoethyl)pyridin-2-yl]-5-cyanophenoxy]-1-methylpyrazole-3-carboxylate]",10 to 1000 nM
18,"Cn1nc(C2CC2)cc1Oc1cc(C#N)ccc1-c1ccc(OCCN)cn1 [compound 348, 4-[5-(2-aminoethoxy)pyridin-2-yl]-3-(5-cyclopropyl-2-methylpyrazol-3-yl)oxybenzonitrile]",< 10 nM

# More lines, now with the values ahead:
row,IC50,Structure (SMILES)
1,< 10 nM,"Cc1nc(-c2ccccc2F)cn1Cc1cc(C#N)ccc1-c1ccc(CCN)cn1 [compound 1152, 4-[5-(2-aminoethyl)pyridin-2-yl]-3-[[4-(2-fluorophenyl)-2-methylimidazol-1-yl]methyl]benzonitrile]"
2,10 to 1000 nM,"Cc1cc(Oc2cc(C#N)c(C)cc2-c2ncc(CN)cn2)cc(N2CCOCC2)n1 [compound 899, 4-[5-(aminomethyl)pyrimidin-2-yl]-2-methyl-5-(2-methyl-6-morpholin-4-ylpyridin-4-yl)oxybenzonitrile]"
3,10 to 1000 nM,"Cc1ncc(N2CCOCC2)cc1Oc1cc(C#N)ccc1-c1ncc(CCN)cn1 [compound 919, 4-[5-(2-aminoethyl)pyrimidin-2-yl]-3-(2-methyl-5-morpholin-4-ylpyridin-3-yl)oxybenzonitrile]"
4,> 1000 nM,"Cc1cc(Oc2cc(C#N)ccc2-c2ncc(CCN)cn2)cc(-c2nccn2C)n1 [compound 687, 4-[5-(2-aminoethyl)pyrimidin-2-yl]-3-[2-methyl-6-(1-methylimidazol-2-yl)pyridin-4-yl]oxybenzonitrile]"
5,< 10 nM,"CCN(CC)c1cc(Oc2cc(F)ccc2-c2ccc(CCN)cn2)n(C)n1 [compound 991, 5-[2-[5-(2-aminoethyl)pyridin-2-yl]-5-fluorophenoxy]-N,N-diethyl-1-methylpyrazole-3-amine]"
6,< 10 nM,"Cc1nc(-c2ccc(F)cc2)cn1Cc1cc(C#N)ccc1-c1ccc(CCN)cn1 [compound 1154, 4-[5-(2-aminoethyl)pyridin-2-yl]-3-[[4-(4-fluorophenyl)-2-methylimidazol-1-yl]methyl]benzonitrile]"
7,> 1000 nM,"N#Cc1ccc(-c2ncc(CCN)cn2)c(Cn2ccnc2-c2ccccc2)c1 [compound 1182, 4-[5-(2-aminoethyl)pyrimidin-2-yl]-3-[(2-phenylimidazol-1-yl)methyl]benzonitrile]"
8,10 to 1000 nM,"Cc1cnc(N2CCOCC2)cc1Oc1cc(C#N)ccc1-c1ncc(CCN)cn1 [compound 902, 4-[5-(2-aminoethyl)pyrimidin-2-yl]-3-(5-methyl-2-morpholin-4-ylpyridin-4-yl)oxybenzonitrile]"
9,< 10 nM,"CCN(c1cc(Oc2cc(C#N)ccc2-c2ncc(CCN)cn2)n(C)n1)C(C)C [compound 842, 4-[5-(2-aminoethyl)pyrimidin-2-yl]-3-[5-[ethyl(propan-2-yl)amino]-2-methylpyrazol-3-yl]oxybenzonitrile]"
10,> 1000 nM,"Cc1nc(Oc2cc(C#N)ccc2-c2ncc(CCN)cn2)cc(OC2COC2)n1 [compound 886, 4-[5-(2-aminoethyl)pyrimidin-2-yl]-3-[2-methyl-6-(oxetan-3-yloxy)pyrimidin-4-yl]oxybenzonitrile]"
11,> 1000 nM,Cn1nc(-c2ccccn2)cc1Oc1cc(C#N)ccc1-c1nc(Cl)c2c(n1)CCNC2 [compound 761]
12,< 10 nM,"CCN(CC)c1cc(Oc2cc(C#N)ccc2-c2ccc([C@@H](F)CN)cn2)n(C)n1 [compound 916, 4-[5-[(1R)-2-amino-1-fluoroethyl]pyridin-2-yl]-3-[5-(diethylamino)-2-methylpyrazol-3-yl]oxybenzonitrile]"
13,< 10 nM,"CN(C)c1cc(C(=O)c2cc(C#N)ccc2-c2ncc(CCN)cn2)n(C)n1 [compound 1043, 4-[5-(2-aminoethyl)pyrimidin-2-yl]-3-[5-(dimethylamino)-2-methylpyrazole-3-carbonyl]benzonitrile]"
14,< 10 nM,"Cc1nn(CC(C)(C)C)cc1Oc1cc(F)ccc1-c1ncc(CCN)cn1 [compound 985, 2-[2-[2-[1-(2,2-dimethylpropyl)-3-methylpyrazol-4-yl]oxy-4-fluorophenyl]pyrimidin-5-yl]ethanamine]"
